From patent publication US20140364454A1, “METAL-CHELATING COMPOUNDS HAVING AT LEAST ONE POLYAMINO CHAIN” (UNIVERSITE DE RENNES I, priority 2011, published 2014)
Like-named read-outs stand apart in the source and are kept apart here.

Experiments:
[1] = system: ODC, OAZ1, SAMDC and PAO genes; test: RT-qPCR of polyamine metabolism genes in Caco-2 cells; format: cell-based, human; conditions: proliferating Caco-2, 10 micromoles per liter, 72 hours
Experimental: After treatment for 72 hours of the Caco-2 cells, in proliferative phase by Quilamine HQ1-44 and ICL670 in a concentration of 10 micromoles per liter, an analysis is carried by RT-qPCR of the expression of the main genes for regulating the metabolism of polyamines, such as ornithine decarboxylase (ODC), antizyme (OAZ1), S-adenosyl methionine decarboxylase (SAMDC) and polyamine oxydase (PAO).

[2] = system: mutant cell line CHO-MG without PTS; test: Anti-proliferative effect on CHO-MG cells without PTS, counting of cell nuclei; format: cell-based, hamster; conditions: for IC50: 72 h treatment; for Ratio IC50 (CHO-MG/CHO): selectivity of recognition by the PTS
From the text: The IC50 inhibitor concentration corresponding to the concentration in Quilamines enables the inhibition at 50% of the cell proliferation was deduced from the dose-effect curves of numeration of the nuclei of the living cells on the CHO and CHO-MG cell lines. These dose-effect curves are sometimes bi-phase curves as in the case of Quilamine HQ1-44 which has an anti-proliferative constituent (without concomitant release of LDH in supernatant) in the range of concentrations of 0.4 to 3 micromoles per liter and a second cytotoxic constituent accompanied by membrane toxicity expressed by the release of LDH for concentrations of over […]. The lower the value of IC50, the greater the efficiency of the anti-proliferative effect of the tested chelators.
Furthermore, the ratio of the IC50 inhibitor concentrations found for the CHO-MG and the CHO cell lines (Ratio IC50 (CHO-MG/CHO)) was computed for several Quilamines according to the invention. This ratio makes it possible to estimate the selectivity of recognition of the different chelators by the PTS: the higher the ratio, the more clearly is the chelator recognized by the PTS. When this ratio is close to 1, the tested chelator is not recognized or is little recognized by the PTS.

[3] = system: Caco-2 cells; test: LC/MSMS of intra-cell polyamines in Caco-2 cells; format: cell-based, human; conditions: proliferating Caco-2, 10 micromoles per liter, 72 hours
Experimental: After treatment for 72 hours of the Caco-2 cells, in proliferative phase by Quilamine HQ1-44 and ICL670 in a concentration of 10 micromoles per liter, a biochemical analysis is carried out by tandem mass spectrometry coupled with liquid chromatography (LC/MSMS) of the intra-cell polyamines such as putrescine, spermidine and spermine, after dansylation.

[4] = system: Caco-2 cells; test: LDH release of Caco-2 cells; format: cell-based, human; conditions: for influence of exogenous iron on the cytotoxic effect: Caco-2, after addition of exogenous iron; for % LDH/control 10 μM: Caco-2 J4, 10 μM; for % LDH/control 100 μM: Caco-2 J4, 100 μM
Experimental: (§1) The action of Quilamines on the cell viability was analyzed on enterocyte cells of the Caco-2 tumor cell line derived from human colon carcinoma and compared with the action of ICL670 in the presence or absence of exogenous iron, after activation (DFMO) or competitive inhibition by spermidine, of the PTS. The operating conditions used are identical to those used for CHO/CHO-MG and HepG2 cells.
As in the case of the other cell lines in proliferative phase presented here above, the dose-effect curves of the action of the Quilamines on the number of viable cells (number of nuclei) are biphase curves with a cytostatic constituent for concentration values of below 30 micromoles per liter and a cytotoxic constituent with release of LDH for concentration values above 30 micromoles per liter. Only this second cytotoxic constituent is observed when the cells of the Caco-2 cell line are treated after confluence (stopping of the proliferation).

[5] = system: Caco-2 cells; test: Cell viability of proliferating Caco-2 cells (number of nuclei); format: cell-based, human; conditions: for Constituent 1 (1-10 μM) % cell / Constituent 2 (10-100 μM) % cell: Caco-2 J4, no exogenous iron; for IC50: Homo sapiens, no exogenous iron
Experimental: as §1
The results for the measurement of the anti-proliferative effect of Quilamines, and of ICL670 on the proliferating cells (cytostatic constituent) when there is no exogenous iron have been listed in the table 4 below.

[6] = system: wild cell line (CHO) of hamster ovarian cells; test: Anti-proliferative effect on CHO cells, counting of cell nuclei (Hoechst 33342); format: cell-based; conditions: CHO
Experimental: The in vitro efficacy of different Quilamines was tested on a wild cell line (CHO) of hamster ovarian cells having PTS and a mutant cell line CHO-MG without PTS. The two cell types CHO and CHO-MG were treated, 24 hours after being seeded in 96-well microplates, by concentrations of different Quilamines ranging from 0.1 to 400 micromoles per liter. The cytostatic (anti-proliferative) effects and cytotoxic effects of Quilamine after 72 hours' treatment of the cells were assessed respectively by counting cell nuclei after DNA marking by the Hoechst 33342 fluorescent intercalant dye and by analysis of membrane damage detected by the dosing of the lactate dehydrogenase activity (LHD) in the supernatants.
The IC50 inhibitor concentration corresponding to the concentration in Quilamines enables the inhibition at 50% of the cell proliferation was deduced from the dose-effect curves of numeration of the nuclei of the living cells on the CHO and CHO-MG cell lines. […] The lower the value of IC50, the greater the efficiency of the anti-proliferative effect of the tested chelators.
A comparison was made of the cytostatic or anti-proliferative action and the cytotoxic action for 72 h of treatment by Quilamine HQ1-44 and 8-hydroxyquinoline and ICL670, on the CHO cell lines in the presence and without the presence of exogenous iron, in the form of Fe(III) citrate in a concentration of 20 micromoles per liter. The results obtained are shown in FIG. 4, FIG. 4A relating to the results on cell viability and FIG. 4B relating to the results on cell toxicity.

[7] = system: L-ferritin and transferrin receptor genes; test: RT-qPCR of iron metabolism genes in Caco-2 cells; format: cell-based, human; conditions: Caco-2 in proliferative phase, 10 micromoles per liter, 72 hours
Experimental: After treatment for 72 hours of the Caco-2 cells in proliferative phase by the Quilamine HQ1-44 and ICL670 in a concentration of 10 micromoles per liter, an analysis is carried out by real-time polymerase chain reaction (RT-qPCR) technique of the expression of the two main genes for regulating intra-cell iron metabolism, that of L-ferritin, the iron-storing protein, and that of the transferrin receptor, which is the iron-importing protein of the membrane. The DNAc (complementary dioxyribonucleic acid) synthesized during the reverse transcription are amplified by the qPCR (quantity of polymerization chain reaction) to quantify the expression of the mNRA (messenger ribonucleic acid) of the genes involved in iron metabolism.

[8] = Caco-2 J4, cytostatic constituent, read-out: Constituent 1 (1-10 μM) IC50
[9] = Caco-2 J4, cytotoxic constituent, read-out: Constituent 2 (10-100 μM) IC50
[10] = Fe(III) citrate 20 micromoles per liter
[11] = 72 h treatment, no exogenous iron, read-out: IC50 CHO

Row | SMILES | expression of the genes of polyamine metabolism (ODC, OAZ1, SAMDC, PAO) [1] | IC50 ([2]; CHO-MG, 72 h) [µM] | Ratio IC50 (CHO-MG/CHO) [2] | change of intra-cell concentration of putrescine (Put) [3] [%] | change of intra-cell concentration of spermidine (Spd) [3] [%] | influence of exogenous iron on the cytotoxic effect [4] | % LDH/control 10 μM [4] [%] | % LDH/control 100 μM [4] [%] | influence of exogenous iron on the cytostatic effect ([5]; Caco-2, after addition of exogenous iron) | Constituent 1 (1-10 μM) % cell [5] [%] | Constituent 2 (10-100 μM) % cell [5] [%] | IC50 [5, 8] [µM] | IC50 [5, 9] [µM] | influence of exogenous iron on the cytostatic (anti-proliferative) effect [6, 10] | IC50 [6, 11] [µM] | expression of the genes for L-ferritin and the transferrin receptor [7] | IC50 [2] [µM] | effect on intra-cell spermine (Spm) [3] | IC50 ([6]; Fe(III) citrate 20 micromoles per liter, 72 h, read-out: IC50 CHO in the presence of exogenous iron) [µM]
1 | O=C(O)c1ccc(-n2nc(-c3ccccc3O)nc2-c2ccccc2O)cc1 [ICL670, reference compound] | no effect | 8 | 1 | −34 | −15 | inhibition | 117 | 130 | inhibition | 18 | 82 | 1.7 | 90 | inhibition | 9.2 | do not significantly modify | – | – | –
2 | NCCCCNCCCCNCc1ccc2cccc(O)c2n1 [HQ1-44, 2-[4-(4-aminobutyl)aminobutyl]aminomethylquinolin-8-ol] | no effect | 344 | 249 | −73 | −55 | partially inhibited | 118 | 287 | – | 70 | 30 | 1.3 | 20 | improvement | 1.4 | do not significantly modify | 344 | absence of an effect | 0.6
